Test system: HeLa cells
Test: Internalization of Dox loaded nanoparticles (flow cytometry)
Type: cell-based
Details: 8 h of exposure
Protocol: After 24 h of incubation at 37° C., 5% CO2, Dox, CPT or Oxa loaded nanoparticles were added to the cells and incubated for 8 h followed by media change. The cells were then incubated for another 40 h before cell viability analysis.
Doxorubicin hydrochloride (Dox) (water soluble), and camptothecin (CPT) and oxaliplatin (Oxa) (water insoluble) were encapsulated into LNPs (see experimental section) and tested against HeLa cells. […] Then the internalization of Dox loaded 75-OCholB LNP (Dox/75-OCholB) was studied after 8 h of exposure using flow cytometry.

## COc1cccc2c1C(=O)c1c(O)c3c(c(O)c1C2=O)C[C@@](O)(C(=O)CO)C[C@@H]3O[C@H]1C[C@H](N)[C@H](O)[C@H](C)O1.Cl [free Dox, Doxorubicin hydrochloride]
  mean fluorescence intensity vs untreated control cells (internalization): could be readily internalized
